Measurements published in US5643871A, “Antitumor antibiotics” (Bristol-Meyers Squibb Company, priority 1993, dated 1997).
Starred links: 1 amine or outer side, 2 acyl side, 3 side chain; linkers in the order of their positions; H or OH if unused. Positions of bridges follow the written chain, without caps; N, C: chain ends. Non-standard residues stand in square brackets, D forms with d. Residues, ends and D or L forms follow the SMILES beside them. Chains are numbered I, II in the order given. ξ: configuration not given here. *: point of attachment. X2 = CC(C)C(=O)OC1CC=NN([*:1])C1C(=O)[*:2]; ξNMeVal(3-OH) = CNC(C(=O)O)C(C)(C)O; X1 = COc1ccc2nc(C(=O)*)cnc2c1; Sar = CNCC(=O)O

Legend:
P388 murine leukemia = test: In vivo antitumor activity against P388 leukemia (ip tumor implant / ip drug); settings: once daily for five days; for % T/C: >=125 considered significant; for Median Survival Time: CDF1 female mice, ip P388;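 as to all read-outs here: dosing started the day after tumor implantation, and %T/C expresses median survival of treated mice relative to the saline-treated control group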
Protocol: CDF1 female mice were implanted intraperitoneally with a tumor inoculum of 10^6 ascites cells of P388, and treated with various doses of test compounds. The compounds were administered intraperitoneally once daily for five consecutive days starting on the day after tumor implantation. The ratio of median survival time for a treated group and that for the saline-treated control group was determined and expressed as %T/C.

P388 leukemia = test: iv/iv P388 leukemia protocol; format: in vivo, mice; settings: 0.010 mg/kg/dose iv, once daily for five days; leukemic cells implanted iv
[1] = test system: Madison 109 (M109) lung carcinoma; test: Madison 109 lung carcinoma, ip/ip model; format: in vivo, mice; settings: 0.05 mg/kg/dose ip on days 2, 6 and 10; ip tumor implantation
[2] = test system: Madison 109 (M109) lung carcinoma; settings: sc tumor implantation, intravenous drug administration on days 2, 6 and 10
Protocol: 299- (1981). Briefly, CDF1 female mice were implanted intraperitoneally (ip) with 0.5 ml or subcutaneously (sc) with 0.1 ml of a 2% brei (w/v) of M109 lung carcinoma. The test compound was administered intraperitoneally (in ip tumor implant groups) or intravenously (in sc tumor implant groups) at various dosage levels to groups of mice on days 2, 6 and 10 after tumor implantation. The median survival time and %T/C values were determined as described above.

Compound	Body Weight Change on Day 4 (P388 murine leukemia; dose 0.02 mg/kg/day ip)	% T/C (P388 murine leukemia; dose 0.02 mg/kg/day ip) [%]	Median Survival Time (P388 murine leukemia; dose 0.02 mg/kg/day ip)	Body Weight Change on Day 4 (P388 murine leukemia; dose 0.05 mg/kg/day ip)	% T/C (P388 murine leukemia; dose 0.05 mg/kg/day ip) [%]	Median Survival Time (P388 murine leukemia; dose 0.05 mg/kg/day ip)	Body Weight Change on Day 4 (P388 murine leukemia; dose 0.2 mg/kg/day ip)	% T/C (P388 murine leukemia; dose 0.2 mg/kg/day ip)	Median Survival Time (P388 murine leukemia; dose 0.2 mg/kg/day ip)	Body Weight Change on Day 4 (P388 murine leukemia; dose 0.7 mg/kg/day ip)	% T/C (P388 murine leukemia; dose 0.7 mg/kg/day ip)	Median Survival Time (P388 murine leukemia; dose 0.7 mg/kg/day ip)	% T/C (P388 murine leukemia; dose 2.0 mg/kg/day ip)	Median Survival Time (P388 murine leukemia; dose 2.0 mg/kg/day ip)	also measured
CCC(=O)OC1CC=NN2C(=O)C(NC(=O)c3cnc4cc(OC)ccc4n3)COC(=O)C(C(C)(C)O)N(C)C(=O)CN(C)C(=O)CNC(=O)C3C(OC(=O)CC)CC=NN3C(=O)C(NC(=O)c3cnc4cc(OC)ccc4n3)COC(=O)C(C(C)(C)O)N(C)C(=O)CN(C)C(=O)CNC(=O)C12 (stereo not drawn) [BMS-181060]	–	–	–	–	–	–	–	–	–	–	–	–	–	–	Body Weight Change on Day 4 (P388 murine leukemia; dose 0.003 mg/kg/day ip): 1.0; % T/C (P388 murine leukemia; dose 0.003 mg/kg/day ip): 105%; Median Survival Time (P388 murine leukemia; dose 0.003 mg/kg/day ip): 11.5; Body Weight Change on Day 4 (P388 murine leukemia; dose 0.01 mg/kg/day ip): 0.1; % T/C (P388 murine leukemia; dose 0.01 mg/kg/day ip): 127%; Median Survival Time (P388 murine leukemia; dose 0.01 mg/kg/day ip): 14.0; Body Weight Change on Day 4 (P388 murine leukemia; dose 0.03 mg/kg/day ip): 0.0; % T/C (P388 murine leukemia; dose 0.03 mg/kg/day ip): 127%; Median Survival Time (P388 murine leukemia; dose 0.03 mg/kg/day ip): 14.0; Body Weight Change on Day 4 (P388 murine leukemia; dose 0.09 mg/kg/day ip): -0.9; % T/C (P388 murine leukemia; dose 0.09 mg/kg/day ip): 91%; Median Survival Time (P388 murine leukemia; dose 0.09 mg/kg/day ip): 10.0; Body Weight Change on Day 4 (P388 murine leukemia; dose 0.27 mg/kg/day ip): 0.7; % T/C (P388 murine leukemia; dose 0.27 mg/kg/day ip): Tox; Median Survival Time (P388 murine leukemia; dose 0.27 mg/kg/day ip): Tox; % T/C (P388 murine leukemia; dose 0.81 mg/kg/day ip): Tox; Median Survival Time (P388 murine leukemia; dose 0.81 mg/kg/day ip): Tox
COc1ccc2nc(C(=O)NC3COC(=O)C(C(C)(C)O)N(C)C(=O)CN(C)C(=O)CNC(=O)C4C(OC(=O)C(C)C)CC=NN4C(=O)C(NC(=O)c4cnc5cc(OC)ccc5n4)COC(=O)C(C(C)(C)O)N(C)C(=O)CN(C)C(=O)CNC(=O)C4C(OC(=O)C(C)C)CC=NN4C3=O)cnc2c1 (stereo not drawn) [BMY-45012] (I: X1-S[X2]G[Sar][ξNMeVal(3-OH)] / II: X1-S[X2]G[Sar][ξNMeVal(3-OH)]; ester I:1-II:C, I:C-II:1; configuration not given here)	-0.4	115	11.5	0.3	145	14.5	-0.7	145%	14.5	-0.1	95%	9.5	–	–	maximum %T/C (P388 leukemia): 113%; maximum %T/C [1]: 131%; antitumor activity (%T/C) [2]: not significantly active
COc1ccc2nc(C(=O)NC3COC(=O)C(C(C)(C)O)N(C)C(=O)CN(C)C(=O)CNC(=O)C4C(OC(=O)C(C)C)CC=NN4C(=O)C(NC(=O)c4cnc5cc(OC)ccc5n4)COC(=O)C(C(C)(C)O)N(C)C(=O)CN(C)C(=O)CNC(=O)C4C(OC(=O)CC(C)C)CC=NN4C3=O)cnc2c1 (stereo not drawn) [BMY-46404]	-0.1	130	13.0	0.2	140	14.0	-0.0	135%	13.5	-0.3	165%	16.5	80%	8.5	Body Weight Change on Day 4 (P388 murine leukemia; dose 2.0 mg/kg/day ip): -0.7
COc1ccc2nc(C(=O)NC3COC(=O)C(C(C)(C)O)N(C)C(=O)CN(C)C(=O)CNC(=O)C4C(OC(=O)CC(C)C)CC=NN4C(=O)C(NC(=O)c4cnc5cc(OC)ccc5n4)COC(=O)C(C(C)(C)O)N(C)C(=O)CN(C)C(=O)CNC(=O)C4C(OC(=O)CC(C)C)CC=NN4C3=O)cnc2c1 (stereo not drawn) [BMY-46405]	-0.8	140	14.0	-0.8	175	17.5	-3.4	Tox	Tox	–	Tox	Tox	Tox	Tox	–
CCC(=O)OC1CC=NN2C(=O)C(NC(=O)c3cnc4cc(OC)ccc4n3)COC(=O)C(C(C)(C)O)N(C)C(=O)CN(C)C(=O)CNC(=O)C3C(OC(C)=O)CC=NN3C(=O)C(NC(=O)c3cnc4cc(OC)ccc4n3)COC(=O)C(C(C)(C)O)N(C)C(=O)CN(C)C(=O)CNC(=O)C12 (stereo not drawn) [BMY-46407]	1.0	120	12.0	-0.0	135	13.5	-0.01	Tox	Tox	–	Tox	Tox	Tox	Tox	–
CCC(=O)OC1CC=NN2C(=O)C(NC(=O)c3cnc4cc(OC)ccc4n3)COC(=O)C(C(C)(C)O)N(C)C(=O)CN(C)C(=O)CNC(=O)C3C(OC(=O)C(C)C)CC=NN3C(=O)C(NC(=O)c3cnc4cc(OC)ccc4n3)COC(=O)C(C(C)(C)O)N(C)C(=O)CN(C)C(=O)CNC(=O)C12 (stereo not drawn) [BMY-46408]	-0.1	150	15.0	-0.4	155	15.5	0.2	155%	15.5	0.3	85%	8.5	Tox	Tox	–
COc1ccc2nc(C(=O)NC3COC(=O)C(C(C)(C)O)N(C)C(=O)CN(C)C(=O)CNC(=O)C4C(OC(=O)C(C)C)CC=NN4C(=O)C(NC(=O)c4cnc5cc(OC)ccc5n4)COC(=O)C(C(C)(C)O)N(C)C(=O)CN(C)C(=O)CNC(=O)C4C(OC(C)=O)CC=NN4C3=O)cnc2c1 (stereo not drawn) [BMY-46572]	–	–	–	–	–	–	–	–	–	–	–	–	–	–	Body Weight Change on Day 4 (P388 murine leukemia; dose 0.003 mg/kg/day ip): 0.4; % T/C (P388 murine leukemia; dose 0.003 mg/kg/day ip): 110%; Median Survival Time (P388 murine leukemia; dose 0.003 mg/kg/day ip): 11.0; Body Weight Change on Day 4 (P388 murine leukemia; dose 0.01 mg/kg/day ip): 0.5; % T/C (P388 murine leukemia; dose 0.01 mg/kg/day ip): 125%; Median Survival Time (P388 murine leukemia; dose 0.01 mg/kg/day ip): 12.5; Body Weight Change on Day 4 (P388 murine leukemia; dose 0.03 mg/kg/day ip): -0.0; % T/C (P388 murine leukemia; dose 0.03 mg/kg/day ip): 140%; Median Survival Time (P388 murine leukemia; dose 0.03 mg/kg/day ip): 14.0
